Source: patent US9834542B2, “LXR modulators” (BRISTOL-MYERS SQUIBB COMPANY, priority 2013, dated 2017)

Target: T1, LXRβ (Homo sapiens, UniProt P55055)
T1 construct: Co-transfection expression plasmids, comprising full-length LXRα (pCMX-h LXRα[…] or LXRβ (pCMX-hLXRβ)); expressed in transfected cells; host or cells: CV-1 African Green Monkey Kidney Cells
T1 sequence (P55055 1-460): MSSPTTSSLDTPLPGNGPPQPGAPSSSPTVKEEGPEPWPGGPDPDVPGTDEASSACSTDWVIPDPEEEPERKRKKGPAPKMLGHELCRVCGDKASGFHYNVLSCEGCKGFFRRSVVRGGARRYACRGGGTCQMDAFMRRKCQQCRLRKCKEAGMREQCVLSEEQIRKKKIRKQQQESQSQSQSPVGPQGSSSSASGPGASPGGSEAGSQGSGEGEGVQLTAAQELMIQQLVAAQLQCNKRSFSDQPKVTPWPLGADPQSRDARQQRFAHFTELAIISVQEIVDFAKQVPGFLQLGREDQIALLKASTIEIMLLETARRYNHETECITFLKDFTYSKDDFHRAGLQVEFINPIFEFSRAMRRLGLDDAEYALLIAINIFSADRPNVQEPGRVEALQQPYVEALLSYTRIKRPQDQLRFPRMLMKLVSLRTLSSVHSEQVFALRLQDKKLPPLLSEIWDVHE
T1 sequence (P19793 1-462 partner): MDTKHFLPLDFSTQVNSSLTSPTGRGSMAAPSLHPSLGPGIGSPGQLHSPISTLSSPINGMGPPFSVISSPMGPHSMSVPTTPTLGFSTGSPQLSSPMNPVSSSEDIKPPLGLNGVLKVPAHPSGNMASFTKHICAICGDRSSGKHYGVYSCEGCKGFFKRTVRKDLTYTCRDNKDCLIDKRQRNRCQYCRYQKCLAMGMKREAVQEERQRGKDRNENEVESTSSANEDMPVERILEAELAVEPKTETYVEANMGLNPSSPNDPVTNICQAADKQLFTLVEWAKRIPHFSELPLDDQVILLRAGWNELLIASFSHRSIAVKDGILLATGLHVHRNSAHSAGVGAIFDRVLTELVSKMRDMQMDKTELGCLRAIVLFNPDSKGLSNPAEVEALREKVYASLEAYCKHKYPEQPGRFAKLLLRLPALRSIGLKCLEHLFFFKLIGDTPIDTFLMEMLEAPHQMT
Experiment: Co-transfection assay (LXRE luciferase reporter), LXRβ
Assay type: cell-based
Conditions: for EC50: CV-1 cells transfected with pCMX-hLXRβ and LXREx1-Tk-Luciferase, 20 hours incubation; for Emax: LXRβ co-transfection, relative to high control 1-(2,4-difluorobenzyl)-2-oxo-6-(4-phenoxyphenyl)-4-(trifluoromethyl)-1,2-dihydropyridine-3-carbonitrile, read-out: % Efficacy
How it was run: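 Luciferase output from an LXRE-Tk reporter measured after 20 h, 37 °C compound exposure of transiently transfected CV-1 cells expressing human LXRβ with endogenous RXR. EC50 fitted from 11-point half-log dose responses (mean of ≥2 runs); % efficacy versus maximal response of the reference agonist.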

EC50 [nM] | Emax [%] | SMILES
425 | 77 | Cc1nc(C(F)(F)F)cn1-c1ccc(-c2cccc(S(C)(=O)=O)c2)cc1-c1ncoc1-c1ccc(Cl)cc1 [Example 354, 5-(4-chlorophenyl)-4-{3′-(methylsulfonyl)-4-[2-methyl-4-(trifluoromethyl)-1H-imidazol-1-yl]biphenyl-3-yl}-1,3-oxazole]
155 | 73 | Cc1nc(-c2cc(-c3cc(F)cc(S(C)(=O)=O)c3)ccc2-n2cc(C(F)(F)F)nc2C)c(-c2ccc3c(c2)OC(F)(F)O3)o1 [Example 463, 5-(2,2-difluorobenzo[d][1,3]dioxol-5-yl)-4-(3′-fluoro-4-(2-methyl-4-(trifluoromethyl)-1H-imidazol-1-yl)-5′-(methylsulfonyl)biphenyl-3-yl)-2-methyloxazole]
68 | 59 | Cc1nc(-c2cc(-c3cc(F)c(CO)c(S(C)(=O)=O)c3)ccc2-n2cc(C(F)(F)F)nc2C)c(-c2ccc(OCC3CC3)c(F)c2)o1 [Example 405, (3′-(5-(4-(cyclopropylmethoxy)-3-fluorophenyl)-2-methyloxazol-4-yl)-3-fluoro-4′-(2-methyl-4-(trifluoromethyl)-1H-imidazol-1-yl)-5-(methylsulfonyl)biphenyl-4-yl)methanol]
38 | 32 | Cc1nc(-c2cc(-c3cc(F)c(CO)c(S(C)(=O)=O)c3)ccc2-n2cc(C(F)(F)F)nc2C)c(-c2cccc(OC(F)(F)F)c2)o1 [Example 545, (3-fluoro-4′-(2-methyl-4-(trifluoromethyl)-1H-imidazol-1-yl)-3′-(2-methyl-5-(3-(trifluoromethoxy)phenyl)oxazol-4-yl)-5-(methylsulfonyl)-[1,1′-biphenyl]-4-yl)methanol]
118 | 92 | Cc1nc(-c2cc(-c3cc(F)c(CO)c(S(C)(=O)=O)c3)ccc2-n2cc(C(F)(F)F)nc2C)c(-c2ccc(OCC(F)F)c(F)c2)o1 [Example 426, (3′-(5-(4-(2,2-difluoroethoxy)-3-fluorophenyl)-2-methyloxazol-4-yl)-3-fluoro-4′-(2-methyl-4-(trifluoromethyl)-1H-imidazol-1-yl)-5-(methylsulfonyl)biphenyl-4-yl)methanol]
119 | 51 | Cc1nc(-c2cc(-c3cc(F)c(CO)c(S(C)(=O)=O)c3)ccc2-n2cc(C(F)(F)F)nc2C)c(-c2cccc(OC(F)(F)C(F)F)c2)o1 [Example 546, (3-fluoro-4′-(2-methyl-4-(trifluoromethyl)-1H-imidazol-1-yl)-3′-(2-methyl-5-(3-(1,1,2,2-tetrafluoroethoxy)phenyl)oxazol-4-yl)-5-(methylsulfonyl)-[1,1′-biphenyl]-4-yl)methanol]
527 | 91 | CNS(=O)(=O)c1cccc(-c2ccc(-n3cc(C(F)F)nc3C)c(-n3nncc3-c3ccc(OC(F)(F)F)cc3)c2)c1 [Example 154, 4′-[4-(difluoromethyl)-2-methyl-1H-imidazol-1-yl]-N-methyl-3′-(5-{4-[(trifluoromethyl)oxy]phenyl}-1H-1,2,3-triazol-1-yl)biphenyl-3-sulfonamide]
271 | 66 | Cc1nc(-c2cc(-c3cc(F)c(CO)c(S(C)(=O)=O)c3)ccc2-n2cc(C(F)(F)F)nc2C)c(-c2ccc(C(F)(F)F)nc2Cl)o1 [Example 477, (3′-(5-(2-chloro-6-(trifluoromethyl)pyridin-3-yl)-2-methyloxazol-4-yl)-3-fluoro-4′-(2-methyl-4-(trifluoromethyl)-1H-imidazol-1-yl)-5-(methylsulfonyl)biphenyl-4-yl)methanol]
198 | 84 | Cc1nc(-c2cc(-c3cccc(S(C)(=O)=O)c3)ccc2-n2cc(Cl)nc2C)c(-c2ccc(OC(F)F)c(F)c2)o1 [Example 466, 4-(4-(4-chloro-2-methyl-1H-imidazol-1-yl)-3′-(methylsulfonyl)biphenyl-3-yl)-5-(4-(difluoromethoxy)-3-fluorophenyl)-2-methyloxazole]
